Among the data in patent US20260217687A1 (NeoPhore Limited, priority 2023, published 2026) are IC50 values, retold here.

Type in all cases: binding
Assay [1] concerns the target T1, recombinant N-terminal MLH1 (residues 15-340) (Homo sapiens, UniProt P40692).
T1 construct: recombinant N-terminal MLH1 (residues 15-340)
T1 sequence (P40692 15-340): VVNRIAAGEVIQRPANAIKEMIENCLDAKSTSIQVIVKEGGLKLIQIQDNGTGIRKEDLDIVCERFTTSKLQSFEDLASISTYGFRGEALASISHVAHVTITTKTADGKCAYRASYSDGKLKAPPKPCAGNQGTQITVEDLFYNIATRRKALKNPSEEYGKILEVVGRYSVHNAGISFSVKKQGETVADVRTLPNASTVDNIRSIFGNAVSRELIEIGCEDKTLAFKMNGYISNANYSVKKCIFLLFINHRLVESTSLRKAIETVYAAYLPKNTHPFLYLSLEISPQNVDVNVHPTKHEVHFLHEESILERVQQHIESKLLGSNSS
Kind of assay: Fluorescence Polarisation Assay for MLH1. The following applies: 100 nM N-terminal MLH1, 5 nM probe compound. A digest of the protocol:
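Fluorescence polarisation displacement: 100 nM MLH1 (15-340) preincubated 30 min at room temperature with compound, then 5 nM rhodamine-labelled probe added and read immediately. Buffer 25 mM HEPES pH 7.5, 250 mM NaCl, 10 mM MgCl2, 0.01% Triton X-100, 5 mM DTT; normalised to no-inhibitor and no-enzyme controls.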
In general terms: Polarisation of emitted light reports the rotation of a fluorescent probe.

In assay [2] the target is T2, recombinant HSP90α (full length with an N-terminal His6-tag) (Homo sapiens, UniProt P07900).
T2 construct: recombinant HSP90α (full length with an N-terminal His6-tag, BPS Bioscience); His6 (N); purchased BPS Bioscience
Kind of assay: Fluorescence Polarisation Assay for HSP90. Conditions: 30 nM HSP90α, 5 nM FITC-Geldanymycin. As for the experimental part:
Fluorescence Polarisation Assay for HSP90
Test compounds, solubilised to a concentration of 10 mM in DMSO, were dispensed into a Black Fluotrac 200 384 well medium binding plates (Greiner Bio-One, item number 781076) using a Labcyte Echo acoustic liquid handler. For single point screening, test compounds were added to wells in columns 1-22 whilst for potency determination, serial dilutions of test compounds were added to wells in columns 3-22; in all cases, DMSO volume was normalised across the entire plate. All subsequent liquid handling steps were conducted using a Multidrop Combi (Thermo Scientific) or Matrix electronic pipettors (Thermo Scientific).
20 μL assay buffer was added to all wells in columns 1 and 24 (column 24 only for single point screening). Plates were centrifuged for 1 minute at 250 xg and were incubated at room temperature for 30 minutes prior to the addition of 20 μL of 2×(10 nM) of FITC-Geldanymycin in assay buffer (Abcam ab141589, prepared from a 100 μM DMSO stock). […]
Compound plates were centrifuged for 1 minute at 250 xg and were incubated at room temperature for 3 hours before being read on a PheraStar FSX (fitted with 384-well aperture spoon and 485 520 520 FP optic module). The gain and focus were adjusted before each plate was read so that the polarisation of a no enzyme control (column 24) was equal to 35 mP. […]

In assay [3] the target is T3, recombinant N-terminal PMS2 (residues 1-365) (Homo sapiens, UniProt P54278).
T3 construct: recombinant N-terminal PMS2 (residues 1-365)
T3 sequence (P54278 1-365): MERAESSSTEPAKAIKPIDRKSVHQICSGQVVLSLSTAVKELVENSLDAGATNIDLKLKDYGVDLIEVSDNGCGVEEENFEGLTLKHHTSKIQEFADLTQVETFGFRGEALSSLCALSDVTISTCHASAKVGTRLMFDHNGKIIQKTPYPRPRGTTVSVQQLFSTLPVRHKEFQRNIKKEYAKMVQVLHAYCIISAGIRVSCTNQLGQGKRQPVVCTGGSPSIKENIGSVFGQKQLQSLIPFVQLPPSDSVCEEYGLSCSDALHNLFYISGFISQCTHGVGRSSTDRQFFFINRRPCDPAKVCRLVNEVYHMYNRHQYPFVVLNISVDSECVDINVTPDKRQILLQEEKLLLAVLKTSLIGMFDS
Kind of assay: Fluorescence Polarisation Assay for PMS2. The following applies: 10 nM N-terminal PMS2, 5 nM probe compound. As to the method:
Fluorescence Polarisation Assay for PMS2
Test compounds, as 10 mM DMSO stocks, were dispensed into a Black Fluotrac 200 384 well medium binding plate (Greiner Bio-One, item number 781076) using a Labcyte Echo acoustic liquid handler. For single point screening, test compounds were added to wells in columns 1-22 whilst DMSO was added to wells in columns 23 and 24 to normalise the plate. For potency determination, serial dilutions of test compounds were added to wells in columns 3-22 and DMSO volume was normalised across the plate. […] 20 μL assay buffer was added to all wells in columns 1 and 24 (column 24 only for single point screening) using a MultiDrop Combi (ThermoFisher). Plates were centrifuged for 1 minute at 250 xg and were incubated at room temperature for 30 minutes prior to the addition of 20 μL of 2×(20 nM) of 5-((5-(4-((2-(2,4-dihydroxy-5-isopropylbenzoyl) isoindolin-5-yl) methyl)piperazin-1-yl) pentyl)carbamoyl)-2-(6-(dimethylamino)-3-(dimethyliminio)-3H-xanthen-9-yl)benzoate (referred to hereinafter as “probe compound”) in assay buffer (prepared from a 100 μM DMSO stock) with a MultiDrop Combi (ThermoFisher). The final concentration of N-terminal PMS2 was 10 nM and the final concentration of probe compound was 5 nM. Compound plates were centrifuged for 1 minute at 250 xg for 1 minute and were incubated at room temperature for 1 hour before being read on a PheraStar FSX (fitted with 384-well aperture spoon and 540 590 590 FP optic module). The gain and focus were adjusted before each plate was read so that the polarisation of a no enzyme control (column 24) was equal to 35 mP. Data were normalised against the no inhibitor controls (column 23) and no enzyme controls (column 24).

Consider `CN1CCC(Oc2ccc3c(c2)CN(C(=O)c2c(O)cc(C(F)F)cc2OCc2ccccc2)C3)CC1` [Example 4.32, (2-(Benzyloxy)-4-(difluoromethyl)-6-hydroxyphenyl)(5-((1-methylpiperidin-4-yl)oxy)isoindolin-2-yl)methanone], for which the concentration for half-maximal inhibition (IC50) in assay [1] was less than 100 nM; in assay [2] it was 1000 to 10000 nM; in assay [3], 1000 to 10000 nM.

In the case of `CN1CCC(Oc2ccc3c(c2)CN(C(=O)c2c(O)cc(C(F)F)cc2OCC2CC2)C3)CC1` [Example 4.59, (2-(Cyclopropylmethoxy)-4-(difluoromethyl)-6-hydroxyphenyl)(5-((1-methylpiperidin-4-yl)oxy)isoindolin-2-yl)methanone], the half-inhibitory concentration (IC50) in assay [1] fell in the range of 100 to 1000 nM; in assay [2], 1000 to 10000 nM.

Take `O=C(c1c(O)cc(C(F)F)cc1OCc1ccccc1)N1Cc2ccc(OC3CCNCC3)cc2C1` [Example 26, (2-(Benzyloxy)-4-(difluoromethyl)-6-hydroxyphenyl)(5-(piperidin-4-yloxy)isoindolin-2-yl)methanone]: the IC50 is less than 100 nM in assay [1] and 1000 to 10000 nM in assay [3].

Usually IC50 stands for the concentration at which inhibition is half-maximal.
